Common to all, as to assay type: in vivo
Experiment [1] deals with Cabbage Looper (Trichoplusia ni, TRIPNI) second instar larvae. As to the kind of experiment: Bioassay on Cabbage Looper (CL), 128-well diet tray assay. To be noted: for pest or weed control at 50 µg/cm2: Cabbage Looper, Table ABC Biological Results, read-out: CL rating; for mortality at 0.05 µg/cm2: 0.05 μg/cm^2 on artificial diet; for mortality at 0.05 µg/cm2 / mortality at 0.5 µg/cm2 / mortality at 5 µg/cm2: read-out: Percent control (or mortality) CL; for mortality at 0.5 µg/cm2: 0.5 μg/cm^2 on artificial diet; for mortality at 5 µg/cm2: 5 μg/cm^2 on artificial diet. The protocol: (§1) Certain molecules disclosed in this document were tested against BAW, CEW, and CL using procedures described in the following examples. In the reporting of the results, the “BAW, CEW, & CL Rating Table” was used (See Table Section).
Bioassays on CL were conducted using a 128-well diet tray assay. one to five second instar CL larvae were placed in each well (3 mL) of the diet tray that had been previously filled with 1 mL of artificial diet to which 50 μg/cm^2 of the test molecule (dissolved in 50 μL of 90:10 acetone-water mixture) had been applied (to each of eight wells) and then allowed to dry. Trays were covered with a clear self-adhesive cover and held at 25° C., 14:10 light-dark for five to seven days. Percent mortality was recorded for the larvae in each well; activity in the eight wells was then averaged. The results are indicated in the table entitled “Table ABC: Biological Results” (See Table Section).
(§2) Bioassays on BAW and CL were conducted according to the procedures outlined in Example A: Bioassays on Beet Armyworm (“BAW”) and Cabbage Looper (“CL”) using the indicated concentrations.

The subject of experiment [2] is Beet Armyworm (Spodoptera exigua, LAPHEG) second instar larvae. Put plainly: Bioassay on Beet Armyworm (BAW), 128-well diet tray assay. To be noted: for pest or weed control at 50 µg/cm2: Beet Armyworm, Table ABC Biological Results, read-out: BAW rating; for mortality at 0.05 µg/cm2: 0.05 μg/cm^2 on artificial diet; for mortality at 0.05 µg/cm2 / mortality at 0.5 µg/cm2 / mortality at 5 µg/cm2: read-out: Percent control (or mortality) BAW; for mortality at 0.5 µg/cm2: 0.5 μg/cm^2 on artificial diet; for mortality at 5 µg/cm2: 5 μg/cm^2 on artificial diet. The protocol:
as §1
Bioassays on BAW were conducted using a 128-well diet tray assay. one to five second instar BAW larvae were placed in each well (3 mL) of the diet tray that had been previously filled with 1 mL of artificial diet to which 50 μg/cm^2 of the test molecule (dissolved in 50 μL of 90:10 acetone-water mixture) had been applied (to each of eight wells) and then allowed to dry. Trays were covered with a clear self-adhesive cover and held at 25° C., 14:10 light-dark for five to seven days. Percent mortality was recorded for the larvae in each well; activity in the eight wells was then averaged. The results are indicated in the table entitled “Table ABC: Biological Results” (See Table Section).
as §2

Experiment [3] concerns Yellow Fever Mosquito (Aedes aegypti, AEDSAE) larvae. Put plainly: Bioassay on Yellow Fever Mosquito (YFM), 96-well plate larval assay. To be noted: Table ABC Biological Results. The protocol: Certain molecules disclosed in this document were tested against YFM using procedures described in the following paragraph. In the reporting of the results, the “GPA & YFM Rating Table” was used (See Table Section).
Master plates containing 400 μg of a molecule dissolved in 100 μL of dimethyl sulfoxide (DMSO) (equivalent to a 4000 ppm solution) are used. A master plate of assembled molecules contains 15 μL per well. To this plate, 135 μL of a 90:10 water:acetone mixture is added to each well. A robot (Biomek® NXP Laboratory Automation Workstation) is programmed to dispense 15 μL aspirations from the master plate into an empty 96-well shallow plate (“daughter” plate). There are 6 reps (“daughter” plates) created per master. The created daughter plates are then immediately infested with YFM larvae.
The day before plates are to be treated, mosquito eggs are placed in Millipore water containing liver powder to begin hatching (4 g. into 400 mL). After the daughter plates are created using the robot, they are infested with 220 μL of the liver powder/larval mosquito mixture (about 1 day-old larvae). After plates are infested with mosquito larvae, a non-evaporative lid is used to cover the plate to reduce drying. Plates are held at room temperature for 3 days prior to grading. After 3 days, each well is observed and scored based on mortality. The results are indicated in the table entitled “Table ABC: Biological Results” (See Table Section).

Each structure is given as a SMILES string.

With `C[C@H](NC(=O)CC(F)(F)F)NC(=O)c1ccc(/C(F)=C/C(c2cc(Cl)cc(Cl)c2)C(F)(F)F)cc1C(F)(F)F` (stereo partly drawn) [F11, 4-((Z)-3-(3,5-dichlorophenyl)-1,4,4,4-tetrafluorobut-1-en-1-yl)-2-(trifluoromethyl)-N—((R)-1-(3,3,3-trifluoropropanamido)ethyl)benzamide], the pest or weed control at 50 µg/cm2 in experiment [1] and in experiment [2] was 50 to 100% throughout. Also, the YFM rating result in experiment [3] is “A (80-100)”.
`C[C@H](NC(=O)CCC(F)(F)F)NC(=O)c1ccc(/C(F)=C/C(c2cc(Cl)cc(Cl)c2)C(F)(F)F)cc1C(F)(F)F` (stereo partly drawn) [F12, 4-((Z)-3-(3,5-Dichlorophenyl)-1,4,4,4-tetrafluorobut-1-en-1-yl)-N—((R)-1-(4,4,4-trifluorobutanamido)ethyl)-2-(trifluoromethyl)benzamide]: the pest or weed control at 50 µg/cm2 in experiment [1] and in experiment [2] was 50 to 100% throughout. Also, the YFM rating result in experiment [3] is “A (80-100)”.
`C[C@H](NC(=O)CC(F)(F)F)NC(=O)c1ccc(/C(F)=C/C(c2ccc(Cl)c(Cl)c2)C(F)(F)F)cc1C(F)(F)F` (stereo partly drawn) [F13, 4-((Z)-3-(3,4-Dichlorophenyl)-1,4,4,4-tetrafluorobut-1-en-1-yl)-2-(trifluoromethyl)-N—((R)-1-(3,3,3-trifluoropropanamido)ethyl)benzamide]: the pest or weed control at 50 µg/cm2 in experiment [1] and in experiment [2] was 50 to 100% in each case. In experiment [3], the YFM rating result is listed as “A (80-100)”.
In the case of `C[C@H](NC(=O)CCC(F)(F)F)NC(=O)c1ccc(/C(F)=C/C(c2ccc(Cl)c(Cl)c2)C(F)(F)F)cc1C(F)(F)F` (stereo partly drawn) [F14, 4-((Z)-3-(3,4-Dichlorophenyl)-1,4,4,4-tetrafluorobut-1-en-1-yl)-N—((R)-1-(4,4,4-trifluorobutanamido)ethyl)-2-(trifluoromethyl)benzamide], the pest or weed control at 50 µg/cm2 in experiment [1] and in experiment [2] was 50 to 100% each time. Besides, the YFM rating result in experiment [3] was “A (80-100)”.
The mortality is the percentage killed. Regarding `Cc1cc(/C(F)=C/C(c2cc(Cl)c(Cl)c(Cl)c2)C(F)(F)F)ccc1C(=O)N[C@H](C)NC(=O)CC(F)(F)F` (stereo partly drawn) [F33, 2-Methyl-4-((Z)-1,4,4,4-tetrafluoro-3-(3,4,5-trichlorophenyl)but-1-en-1-yl)-N—((R)-1-(3,3,3-trifluoropropanamido)ethyl)benzamide], in experiment [1], the mortality at 0.05 µg/cm2 came out at 100%, the mortality at 0.5 µg/cm2 turned out to be 100%, the mortality at 5 µg/cm2 was 100% and the pest or weed control at 50 µg/cm2 lay within 50 to 100%. Besides, in experiment [2], the mortality at 0.05 µg/cm2 came to 88%, the mortality at 0.5 µg/cm2 is 100%, the mortality at 5 µg/cm2 came out at 100% and the pest or weed control at 50 µg/cm2 was in the range of 50 to 100%.
Consider `CCC(=O)N[C@@H](C)NC(=O)c1ccc(/C(F)=C/C(c2cc(Cl)c(Cl)c(Cl)c2)C(F)(F)F)cc1C(F)(F)F` (stereo partly drawn) [F34, N—((R)-1-propionamidoethyl)-4-((Z)-1,4,4,4-tetrafluoro-3-(3,4,5-trichlorophenyl)but-1-en-1-yl)-2-(trifluoromethyl)benzamide], for which the pest or weed control at 50 µg/cm2 in experiment [1] and in experiment [2] was 50 to 100% each time.
As for `CC[C@H](NC(=O)CC(F)(F)F)NC(=O)c1ccc(/C(F)=C/C(c2cc(Cl)c(Cl)c(Cl)c2)C(F)(F)F)cc1C(F)(F)F` (stereo partly drawn) [F35, 4-((Z)-1,4,4,4-Tetrafluoro-3-(3,4,5-trichlorophenyl)but-1-en-1-yl)-2-(trifluoromethyl)-N—((R)-1-(3,3,3-trifluoropropanamido)propyl)benzamide], the pest or weed control at 50 µg/cm2 in experiment [1] and in experiment [2] was 50 to 100% throughout.
Consider `C[C@H](NC(=O)CC(F)(F)F)NC(=O)c1ccc(/C(F)=C/C(c2ccc(Cl)c(Br)c2)C(F)(F)F)cc1C(F)(F)F` (stereo partly drawn) [F37, 4-((Z)-3-(3-Bromo-4-chlorophenyl)-1,4,4,4-tetrafluorobut-1-en-1-yl)-2-(trifluoromethyl)-N—((R)-1-(3,3,3-trifluoropropanamido)ethyl)benzamide], for which the pest or weed control at 50 µg/cm2 in experiment [1] and in experiment [2] was 50 to 100% in each case.
For the compound `C[C@H](NC(=O)CC(F)(F)F)NC(=O)c1ccc(/C(F)=C/C(c2ccc(Cl)c(Cl)c2)C(C)(F)F)cc1C(F)(F)F` (stereo partly drawn) [F39, 4-((Z)-3-(3,4-Dichlorophenyl)-1,4,4-trifluoropent-1-en-1-yl)-2-(trifluoromethyl)-N—((R)-1-(3,3,3-trifluoropropanamido)ethyl)benzamide], the pest or weed control at 50 µg/cm2 in experiment [1] and in experiment [2] was 50 to 100% in each case.
As to `C[C@H](NC(=O)CCC(F)(F)F)NC(=O)c1ccc(/C(F)=C/C(c2ccc(Cl)c(Cl)c2)C(C)(F)F)cc1C(F)(F)F` (stereo partly drawn) [F40, 4-((Z)-3-(3,4-Dichlorophenyl)-1,4,4-trifluoropent-1-en-1-yl)-N—((R)-1-(4,4,4-trifluorobutanamido)ethyl)-2-(trifluoromethyl)benzamide], the pest or weed control at 50 µg/cm2 in experiment [1] and in experiment [2] was 50 to 100% throughout.
As to `C[C@H](NC(=O)CC(F)(F)F)NC(=O)c1ccc(/C(F)=C/C(c2cc(Cl)c(Cl)c(Cl)c2)C(F)(F)F)cc1` (stereo partly drawn) [FC1, 4-((Z)-1,4,4,4-Tetrafluoro-3-(3,4,5-trichlorophenyl)but-1-en-1-yl)-N—((R)-1-(3,3,3-trifluoropropanamido)ethyl)benzamide, reference compound], in experiment [1], the mortality at 0.05 µg/cm2 amounted to 0%, the mortality at 0.5 µg/cm2 turned out to be 0% and the mortality at 5 µg/cm2 worked out at 100%. Moreover, in experiment [2], the mortality at 0.05 µg/cm2 came to 0%, the mortality at 0.5 µg/cm2 came to 0% and the mortality at 5 µg/cm2 is 7%.
As to `C[C@H](NC(=O)CCC(F)(F)F)NC(=O)c1ccc(/C(F)=C/C(c2cc(Cl)c(Cl)c(Cl)c2)C(F)(F)F)cc1` (stereo partly drawn) [FC2, 4-((Z)-1,4,4,4-Tetrafluoro-3-(3,4,5-trichlorophenyl)but-1-en-1-yl)-N—((R)-1-(4,4,4-trifluorobutanamido)ethyl)benzamide, reference compound], in experiment [1], the mortality at 0.05 µg/cm2 stood at 0%, the mortality at 0.5 µg/cm2 worked out at 6% and the mortality at 5 µg/cm2 was found to be 100%. Further, in experiment [2], the mortality at 0.05 µg/cm2 came out at 0%, the mortality at 0.5 µg/cm2 was 0% and the mortality at 5 µg/cm2 is 100%.
With `C[C@H](NC(=O)CC(F)(F)F)NC(=O)c1ccc(/C(F)=C/C(c2ccc(Br)c(Cl)c2)C(F)(F)F)cc1C(F)(F)F` (stereo partly drawn) [PF8, 4-((Z)-3-(4-Bromo-3-chlorophenyl)-1,4,4,4-tetrafluorobut-1-en-1-yl)-2-(trifluoromethyl)-N—((R)-1-(3,3,3-trifluoropropanamido)ethyl)benzamide], the pest or weed control at 50 µg/cm2 in experiment [1] and in experiment [2] was 50 to 100% throughout.
Consider `C[C@H](NC(=O)CCC(F)(F)F)NC(=O)c1ccc(/C(F)=C/C(c2ccc(Cl)c(Br)c2)C(F)(F)F)cc1C(F)(F)F` (stereo partly drawn) [PF13, 4-((Z)-3-(3-Bromo-4-chlorophenyl)-1,4,4,4-tetrafluorobut-1-en-1-yl)-N—((R)-1-(4,4,4-trifluorobutanamido)ethyl)-2-(trifluoromethyl)benzamide], for which the pest or weed control at 50 µg/cm2 in experiment [1] and in experiment [2] was 50 to 100% each time.
With `C[C@@H](NC(=O)c1ccc(/C(F)=C/C(c2cc(Cl)c(Cl)c(Cl)c2)C(F)(F)F)cc1C(F)(F)F)NC(=O)C1(C#N)CC1` (stereo partly drawn) [PF31, N—((S)-1-(1-Cyanocyclopropane-1-carboxamido)ethyl)-4-((Z)-1,4,4,4-tetrafluoro-3-(3,4,5-trichlorophenyl)but-1-en-1-yl)-2-(trifluoromethyl)benzamide], the pest or weed control at 50 µg/cm2 in experiment [1] and in experiment [2] was 50 to 100% throughout.
